Results reported in patent US8956445B2, “High stability diionic liquid salts” (Sigma-Aldrich Co., priority 2004, dated 2015).
Where two headings read alike, the source gives them in different places.

Experiments:
[1] = Surface tension (DuNuoy Tensiometer); type: physicochemical; conditions: room temperature (23° C.)
[2] = Density (2.0 mL volumetric tube, weighing by difference); type: physicochemical; conditions: 23° C.
Procedure: (§1) The densities of the ionic liquids or, more correctly, […] (used synonymously except as indicated otherwise explicitly or by context) was determined at 23° C. by placing 2.0 mL of the ionic liquid in a 2.0 mL volumetric tube and weighing by difference. The melting points of the ionic liquids were determined using a Perkin Elmer Pyris 1 Differential Scanning calorimeter (Boston, Mass.). Typical methods involved using a 10° C./min temperature ramp to determine and identify the first and second order thermal transitions. […] For solid compounds, the melting points were verified using a capillary melting point apparatus. Refractive index measurements were conducted at 23° C. using a Bausch & Lomb Abbe-3L refractometer.

[3] = Refractive index (Abbe-3L refractometer); type: physicochemical; conditions: 23° C.
Procedure: as §1

[4] = Solvation interaction parameters by inverse gas-liquid chromatography (Abraham solvation model); type: physicochemical
Procedure: The preparation of the capillary columns for inverse gas-liquid chromatographic analysis was performed using a previously described procedure.^31 All capillary columns had efficiencies between 2100 to 2500 plates/meter. Characterization of the capillary columns and probe molecule descriptions are listed in supplemental information. Multiple linear regression analysis (MLRA) and statistical calculations were performed using the program Analyse-it (Microsoft, USA).
We have previously reported that the Abraham solvation model, a linear free energy approach that utilizes inverse gas-liquid chromatography to describe the solvation properties of a liquid, can be used to characterize room temperature ionic liquids.^31 Described by equation 1, the model provides the so-called “interaction parameters” (r, s, a, b, l) by using multiple linear regression analysis to fit the retention factor (k, determined chromatographically) to the solute descriptors (R2, π2^H, α2^H, β2^H, log L^16) for a wide variety of probe solute molecules. […] The solvation properties of four dicationic ionic liquids (see Table 4) were evaluated and the interaction parameters compared to those obtained for their traditional monocationic analogues 1-butyl-3-methylimidazolium and 1-butyl-1-methylpyrrolidinium ionic liquids.
Previously we characterized a large number of room temperature ionic liquids in terms of multiple solvation interactions using the solvation parameter model, shown in equation 3.^44 log k=c+rR2+sπ2^H+aα2^H+bβ2^H+l log L^16 [3] This approach utilizes inverse gas-liquid chromatography and allows the use of a large number of probe molecules to deconvolute solute retention in terms of the type and magnitude of individual solvation interactions. The solute descriptors (R2, π2^H, α2^H, β2^H, log L^16) from Equation 3 are obtained from the literature for many probe molecules containing a variety of functional groups.^45 The retention factor is determined chromatographically. The solute descriptors and retention factors are subjected to multiple linear regression analysis to obtain the interaction parameter coefficients (r, s, a, b, l), which ultimately characterize the stationary phase: r is the ability of the diionic liquid containing-stationary phase to interact with π and n electrons of the solute, s is a measure of the dipolarity/polarizability of the diionic liquid containing-stationary phase, a defines the diionic liquid containing-stationary phase hydrogen bond basicity, b is a measure of the hydrogen bond acidity, and/refers to the ability of the diionic liquid containing-stationary phase to separate adjacent members of a homologous series.^46
(§2) Test solutes used to determine interaction parameters and solvation thermodynamics were dissolved in dichloromethane. A Hewlett-Packard model 5890 gas chromatograph and a Hewlett-Packard 6890 series integrator were used for all separations. Split injection and flame ionization detection were utilized with injection and detection temperatures of 250° C. Helium was used as the carrier gas with a column inlet pressure of 3.1 psi and flow rate of 1.0 mL/min. Methane was used to determine the dead volume of the column. Multiple linear regression analysis and statistical calculations were performed using the program Analyze-it (Microsoft).

[5] = Solvation thermodynamics of probe molecules (van't Hoff plots, GC); type: physicochemical
Text: Solvation thermodynamics can be determined chromatographically by recognizing that the Gibbs free energy change, ΔG°, of a solute between the mobile phase and the stationary phase can be described by equation 1:
[formula] where k is the solute retention factor and Φ is the column phase ratio. An expression shown in equation 2 can then be derived and illustrates the dependence of enthalpy, ΔH°, and entropy, ΔS°, on the change of the retention factor with temperature:
[formula] A van't Hoff plot of ln k versus 1/T provides the entropy (intercept) and enthalpy (slope) and describes a solute's transfer from the gas phase to the ionic liquid stationary phase. In this work, the solvation thermodynamics were determined for seven different probe molecules, listed in Table D, on two cross-linked ionic liquid phases and one ionic liquid stationary phase. […] For each probe molecule on each stationary phase, three separate van't Hoff plots were constructed so that changes in the probe molecule retention factor could be used to provide an error for each thermodynamic parameter. The probe molecule retention factors were determined at six different temperatures to obtain the highest possible correlation coefficient (>0.989).
as §2

[6] = probe 2-Chloroaniline, 40-100° C.
[7] = probe Ethyl Phenyl Ether, 35-75° C.

## Cn1cc[n+](CCCCCCCCC[n+]2ccn(C)c2)c1.F[B-](F)(F)F.F[B-](F)(F)F [C9(mim)2-BF4, 1,9-di(3-methylimidazolium)nonane di-tetrafluoroborate]
[1]
  Surface Tension: 61.2 dynes/cm
[2]
  Density: 1.33 g/mL
[3]
  Refractive Index: 1.469
other
  Miscibility with Heptane: Immiscible
  Miscibility with Water: Miscible

## CCCCn1cc[n+](CCCCCCCCC[n+]2ccn(CCCC)c2)c1.O=S(=O)([N-]S(=O)(=O)C(F)(F)F)C(F)(F)F.O=S(=O)([N-]S(=O)(=O)C(F)(F)F)C(F)(F)F [C9(bim)2-NTf2, 1,9-di(3-butylimidazolium)nonane di-bis[(trifluoromethyl)sulfonyl]imidate]
[1]
  Surface Tension: 38.0 dynes/cm
[2]
  Density: 1.35 g/mL
[3]
  Refractive Index: 1.446
other
  Miscibility with Heptane: Immiscible
  Miscibility with Water: Immiscible

## Cn1cc[n+](CCC[n+]2ccn(C)c2)c1.O=S(=O)([N-]S(=O)(=O)C(F)(F)F)C(F)(F)F.O=S(=O)([N-]S(=O)(=O)C(F)(F)F)C(F)(F)F [C3(mim)2-NTf2, 1,3-di(3-methylimidazolium)propane di-bis[(trifluoromethyl)sulfonyl]imidate]
[1]
  Surface Tension: 44.7 dynes/cm
[2]
  Density: 1.61 g/mL
[3]
  Refractive Index: 1.440
other
  Miscibility with Heptane: Immiscible
  Miscibility with Water: Immiscible

## Cc1n(C)cc[n+]1CCCCCCCCC[n+]1ccn(C)c1C.O=S(=O)([N-]S(=O)(=O)C(F)(F)F)C(F)(F)F.O=S(=O)([N-]S(=O)(=O)C(F)(F)F)C(F)(F)F [C9(m2im)2-NTf2, 1,9-di(2,3-dimethylimidazolium)nonane di-bis[(trifluoromethyl)sulfonyl]imidate]
[1]
  Surface Tension: 43.5 dynes/cm
[2]
  Density: 1.47 g/mL
[3]
  Refractive Index: 1.448
other
  Miscibility with Heptane: Immiscible
  Miscibility with Water: Immiscible

## Cn1cc[n+](CCCCCCCCCCCC[n+]2ccn(C)c2)c1.F[B-](F)(F)F.F[B-](F)(F)F [C12(mim)2-BF4, 1,12-di(3-methylimidazolium)dodecane di-tetrafluoroborate]
[1]
  Surface Tension: 55.8 dynes/cm
[2]
  Density: 1.26 g/mL
[3]
  Refractive Index: 1.503
other
  Miscibility with Heptane: Immiscible
  Miscibility with Water: Partially
Listed as 15
  Miscibility with Water: solubility of the salt in water decreases

## Cn1cc[n+](CCCCCCCCCCCC[n+]2ccn(C)c2)c1.F[P-](F)(F)(F)(F)F.F[P-](F)(F)(F)(F)F [C12(mim)2-PF6, 1,12-di(3-methylimidazolium)dodecane di-hexafluorophosphate]
[1]
  Surface Tension: 53.4 dynes/cm
[2]
  Density: 1.36 g/mL
[3]
  Refractive Index: 1.436
other
  Miscibility with Heptane: Immiscible
  Miscibility with Water: Immiscible

## Cc1n(C)cc[n+]1CCCCCCCCC[n+]1ccn(C)c1C.F[B-](F)(F)F.F[B-](F)(F)F [C9(m2im)2-BF4, 1,9-di(2,3-dimethylimidazolium)nonane di-tetrafluoroborate]
[1]
  Surface Tension: 58.1 dynes/cm
[2]
  Density: 1.31 g/mL
[3]
  Refractive Index: 1.456
other
  Miscibility with Heptane: Immiscible
  Miscibility with Water: Miscible

## CCCCn1cc[n+](CCCCCCCCC[n+]2ccn(CCCC)c2)c1.F[B-](F)(F)F.F[B-](F)(F)F [C9(bim)2-BF4, 1,9-di(3-butylimidazolium)nonane di-tetrafluoroborate]
[1]
  Surface Tension: 50.4 dynes/cm
[2]
  Density: 1.20 g/mL
[3]
  Refractive Index: 1.503
other
  Miscibility with Heptane: Immiscible
  Miscibility with Water: Partially
Listed as 19
  Miscibility with Water: solubility of the salt in water decreases

## CCCCn1cc[n+](CCCCCCCCC[n+]2ccn(CCCC)c2)c1.F[P-](F)(F)(F)(F)F.F[P-](F)(F)(F)(F)F [C9(bim)2-PF6, 1,9-di(3-butylimidazolium)nonane di-hexafluorophosphate]
[1]
  Surface Tension: 48.0 dynes/cm
[2]
  Density: 1.30 g/mL
[3]
  Refractive Index: 1.439
other
  Miscibility with Heptane: Immiscible
  Miscibility with Water: Immiscible

## CCCCCCCCC[n+]1ccn(C)c1.O=S(=O)([N-]S(=O)(=O)C(F)(F)F)C(F)(F)F [nmim-NTf2]
[2]
  Density: 1.30 g/mL
[3]
  Refractive Index: 1.434
[4]; 40° C.
  a (hydrogen bond basicity): 1.91
  b (hydrogen bond acidity): 0.36
  c (interaction parameter table, constant): −2.98
  l (dispersion forces): 0.75
  r (interaction via nonbonding and π-electrons): 0
  s (dipolarity/polarizability): 1.62
[4]; 70° C.
  a (hydrogen bond basicity): 1.57
  b (hydrogen bond acidity): 0.18
  c (interaction parameter table, constant): −3.05
  l (dispersion forces): 0.63
  r (interaction via nonbonding and π-electrons): 0
  s (dipolarity/polarizability): 1.54
[4]; 100° C.
  a (hydrogen bond basicity): 1.43
  b (hydrogen bond acidity): 0.12
  c (interaction parameter table, constant): −3.47
  l (dispersion forces): 0.60
  r (interaction via nonbonding and π-electrons): 0
  s (dipolarity/polarizability): 1.52
[5]; probe 1-Octanol, 35-75° C.
  ΔHAV: -14.168 kcal/mol
  ΔSAV: −151 J/mol*K
[5]; probe 1-Octanol, 50° C.
  ΔG: -2.505 kcal/mol
[5]; [6]
  ΔHAV: -13.779 kcal/mol
  ΔSAV: −134 J/mol*K
[5]; probe 2-Chloroaniline, 70° C.
  ΔG: -2.7892 kcal/mol
[5]; probe Decane, 35-75° C.
  ΔHAV: -10.848 kcal/mol
  ΔSAV: −127 J/mol*K
[5]; probe Decane, 50° C.
  ΔG: -1.039 kcal/mol
[5]; [7]
  ΔHAV: -11.119 kcal/mol
  ΔSAV: −121 J/mol*K
[5]; probe Ethyl Phenyl Ether, 50° C.
  ΔG: -1.773 kcal/mol
[5]; probe Fluorophenol, 40-100° C.
  ΔHAV: -11.497 kcal/mol
  ΔSAV: −121 J/mol*K
[5]; probe Fluorophenol, 70° C.
  ΔG: -1.573 kcal/mol
[5]; probe Naphthalene, 40-100° C.
  ΔHAV: -12.856 kcal/mol
  ΔSAV: −127 J/mol*K
[5]; probe Naphthalene, 70° C.
  ΔG: -2.44 kcal/mol
[5]; probe Nitropropane, 27-50° C.
  ΔHAV: -9.3236 kcal/mol
  ΔSAV: −109 J/mol*K
[5]; probe Nitropropane, 35° C.
  ΔG: -1.296 kcal/mol

## Cn1cc[n+](CCCCCC[n+]2ccn(C)c2)c1.O=S(=O)([N-]S(=O)(=O)C(F)(F)F)C(F)(F)F.O=S(=O)([N-]S(=O)(=O)C(F)(F)F)C(F)(F)F [C6(mim)2-NTf2, 1,6-di(3-methylimidazolium)hexane di-bis[(trifluoromethyl)sulfonyl]imida]
[1]
  Surface Tension: 44.2 dynes/cm
[2]
  Density: 1.52 g/mL
[3]
  Refractive Index: 1.441
other
  Miscibility with Heptane: Immiscible
  Miscibility with Water: Immiscible

## Cn1cc[n+](CCCCCCCCCCCC[n+]2ccn(C)c2)c1.O=S(=O)([N-]S(=O)(=O)C(F)(F)F)C(F)(F)F.O=S(=O)([N-]S(=O)(=O)C(F)(F)F)C(F)(F)F [C12(mim)2-NTf2, 1,12-di(3-methylimidazolium)dodecane di-bis[(trifluoromethyl)sulfonyl]imidate]
[1]
  Surface Tension: 42.3 dynes/cm
[2]
  Density: 1.40 g/mL
[3]
  Refractive Index: 1.443
other
  Miscibility with Heptane: Immiscible
  Miscibility with Water: Immiscible
